# Results as given in patent publication US10335504B2, “Heterocyclic molecules for biomedical imaging and therapeutic applications” (Washington University, priority 2013, dated 2019).
# “Also recorded” adds a separate entry of the source. Read-outs that look alike come from different tables or passages of the source.
# What was measured:
# Aβ plaques [1] = test: Staining of human AD brain tissue sections; type: binding; settings: person with AD
# Experimental: Staining experiments were performed with human brain tissues. Tissue samples were obtained from the frontal lobe of clinically and neuropathologically well-characterized cases. The neuropathological diagnosis of AD was based on the criteria of the Consortium to Establish a Registry for Alzheimer's Disease (CERAD) (Mirra, S., et al. The Consortium to Establish a Registry for Alzheimer's Disease (CERAD). Part II. Standardization of the neuropathologic assessment of Alzheimer's disease. Neurology 41, 479-486 (1991)) or the National Institute of Aging-Reagan Institute (NIA-RI) (Hyman, B. & Trojanowski, J. Consensus recommendations for the postmortem diagnosis of Alzheimer disease from the National Institute on Aging and the Reagan Institute Working Group on diagnostic criteria for the neuropathological assessment of Alzheimer disease. J Neuropathol Exp Neurol 56, 1095-1097. (1997)). […]
# The fluorescent probe (F-AI-183) labels fibrillar amyloid (arrow). The slides were analyzed on a using a Nikon Ti-E PFS inverted microscope equipped with a Nikon 10×0.3 NA Plan APO objective, Prior H117 ProScan flat top linear encoded stage, and Prior Lumen 200PRO illumination system with standard DAPI and FITC filter sets. […] Images were processed and analyzed using the Image J software package (NIH).
# Aβ plaques [2] = target: T1, Aβ plaques (Homo sapiens, UniProt P05067); test: Ex vivo staining of mouse brain sections; type: binding; settings: APPsw+/− mice, 24 months old
# T1 construct: from tissue; host or cells: brain of APPsw+/-/PS1 (and APPsw+/-) transgenic mice: sections ex vivo, and live animals for multiphoton imaging
# T1 sequence (P05067 672-713 limits assumed): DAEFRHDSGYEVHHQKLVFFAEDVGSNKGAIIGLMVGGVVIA
# Experimental: FIG. 2 illustrates ex vivo staining studies were performed on brain sections (50 μm) of an APPsw^+/−/PS1 mouse (24 months old) and a control WT mouse (BL/6; 24 months old) using well-established procedures. Briefly, tissue sections were immunostained with mouse monoclonal antibody and visualized by donkey-anti-mouse HJ3.4 Aβ monoclonal antibody-Alexa 568 as a positive control. […] By comparison, no staining in WT mice was seen either with F-AI-182 or the antibody indicating the targeting specificity of F-AI-182. The slides were analyzed on a Zeiss LSM 5 PASCAL confocal system coupled to a Zeiss Axiovert 200 microscope.
# The slides were analyzed using a Nikon Ti-E PFS inverted microscope equipped with a Nikon 10x 0.3 NA Plan APO objective, Prior H117 ProScan flat top linear encoded stage, and Prior Lumen 200PRO illumination system with standard DAPI and FITC filter sets. The images were acquired using a Photometrics CoolSNAP HQ2 digital camera and MetaMorph microscopy automaton, and imaging software. Images were processed and analyzed using the Image J software package (NIH).
# preformed Aβ1-42 fibrils = target: T2, preformed Aβ1-42 fibrils (Homo sapiens, UniProt P05067); test: Binding assay with preformed Aβ1-42 fibrils/aggregates in PBS (fluorescence)
# T2 construct: preformed Aβ1-42 fibrils
# T2 sequence (P05067 672-713 limits assumed): as above
# From the text: In some embodiments of the present teachings, binding assays to preformed fibrils or AD brain homogenate extracts can be performed using literature procedures (Klunk, W., et al. Uncharged thioflavin-T derivatives bind to amyloid-beta protein with high affinity and readily enter the brain. Life Sci 69, 1471-1484 (2001); Zhen, W., et al. Synthesis and amyloid binding properties of rhenium complexes: preliminary progress towards a reagent for SPECT imaging of Alzheimer's disease brain. J Med Chem 42, 2805-2815 (1999)). Prior to binding assays, the stock solution (2 μM) can be thawed. To aliquots of this stock solution, ^18F-AI-182 (also exemplified for either ^18F-AI-183 or ^18F-AI-187) can be added at various concentrations to a final concentration of 200 nM Aβ fibrils or 200 μL of AD brain extracts (20-25 μg). The aggregate-bound ^18F-AI-182 (or other analogues) can be collected on Whatman GF filters using Brandon M-24R cell harvester, washed, and counted in a γ-counter (Perkin Elmer). Inhibition constants (Ki) can be calculated as described previously (Han, H., Cho, C. & Lansbury, P. J. Technetium complexes for quantification of brain amyloid. J Am Chem Soc 118, 4506-4508 (1996)). Binding assay results can assist in evaluation of target specificity.
# Binding assays of F-AI-182 with preformed Aβ1-42 aggregates were performed in PBS. […] Fluorescence was not observed using Aβ aggregates alone in PBS upon excitation at 410 nm (a negative control). […] Comparative analyses can be performed with other compounds such as AV-45, BAYER 94-9172, and AZD4694. An agent can be interacting with either of the two modestly high affinity binding sites (BS1& BS2) or recognizing an entirely new site on Aβ1-42. F-AI-182 can register different complementary binding sites in relation to Aβ-pathophysiology compared to current agents.
# BS1 and BS3 sites = settings: cited from earlier work
# [3] = cited from earlier work
# [4] = cited from earlier work; remark: listed apart in the source
# Stability in human serum = type: in vitro ADME
# From the text: In various configurations, identified heterocyclic molecules can be assessed for metabolic stability for use in biomedical imaging applications both in vitro and in vivo using established procedures (e.g., Mathis, C., et al. Synthesis and evaluation of ^11C-labeled 6-substituted 2-arylbenzothiazoles as amyloid imaging agents. J. Med. Chem. 46, 2740-2754 (2003); Sharma, V. Radiopharmaceuticals for assessment of multidrug resistance P-glycoprotein-mediated transport activity. Bioconjug. Chem. 15, 1464-1474 (2004)). In some embodiments, ^18F-AI-182, another agent, or a combination thereof can be incubated in either serum or human serum albumin at time points corresponding to uptake in vivo (5 min to 2 h) and filtered through filters (30 kDa). Free and bound radiotracer can be calculated using previously describe methods (Bartholoma, M. D., et al. Effect of the prosthetic group on the pharmacologic properties of ^18F-labeled rhodamine B, a potential myocardial perfusion agent for positron emission tomography (PET). J Med Chem 55, 11004-11012 (2012)), and can be analyzed by radio-TLC scanner and radio-HPLC. […] Brain tissues, liver, and kidney can be removed (liver and kidney can be used to evaluate their metabolic stability in more stringent in vivo environments), sonicated, extracted and analyzed through radio-TLC and -HPLC.
# [5] = Biodistribution study in normal FVB mice; type: in vivo, mouse; settings: for tissue uptake at 5 min / tissue uptake at 120 min: mouse, intravenous
# From the text: In various configurations, agents can be evaluated in part by exploring the tissue distribution and kinetics of ^18F-AI-182 or other agents in normal mice and transgenic mice. Because these heterocyclic molecules can be labeled with ^18F using the methods described herein, biodistribution in normal mice can be determined. In such investigations, BL/6 (control mice; Taconic) or APPsw^+/−/PS1 (transgenic, Taconic) mice can be anesthetized by isoflurane inhalation and injected with ^18F-AI-182 or other agents (20 μCi in 50-100 μl saline) via bolus injection through a tail vein. Animals can be sacrificed by cervical dislocation at 2, 30, 60, and 120 min post-injection (n=2-4) and data can be quantified into % ID/g as described (Sivapackiam, J., et al. Synthesis, molecular structure, and validation of metalloprobes for assessment of MDR1 P-glycoprotein-mediated functional transport. Dalton Trans 39, 5842-5850 (2010)). The brains can be removed and dissected into cerebellums and remaining whole brain fractions prior to weighing and counting to evaluate regional differences in the location of radiotracer in comparison with transgenic mice.
# For in vivo imaging of Aβ plaques, the basic pharmacokinetic model in an unaffected normal brain involves high initial penetration of the agent, followed by rapid clearance due to lack of a binding target. However, in AD brains, high initial penetration can be followed by regional retention as the agent binds to Aβ thus leading to differential kinetics. To accomplish this objective, biodistribution studies of ^18F-AI-182 were performed in normal FVB mice for assessment of signal to noise ratios and clearance profiles. Brain uptake of ^18F-AI-182 was analyzed in terms of percent injected dose per gram of the brain tissue (% ID/g). […] This initial brain uptake value (5 min) in normal mice is approximately 15-fold high compared with our Aβ-targeted ^99mTc-Peptides (Harpstrite, S. E., Prior, J., Binz, K., Piwnica-Worms, D. & Sharma, V. ^99mTc-Peptide conjugates for imaging β-amyloid in the brain. ACS Med Chem Lett (2013) under review). […] Net brain uptake of ^18F-AI-182 is 1.2-fold higher than that of ^18F-AV-45. The initial data point for ^18F-AI-182 is at 5 min compared with 2 min for ^18F-AV-45.
# [6] = Literature biodistribution in normal mice (Choi et al. 2009); type: in vivo, mouse
# [7] = cited from earlier work; for brain uptake: normal mice
compound,measurement,setting,value
CN(C)c1ccc(/C=C/c2nc3cc(OCCF)ccc3[se]2)cn1 [F-AI-183],detection of Aβ plaques in human AD brain cross-sections of frontal lobe,Aβ plaques [1],detection of compact Aβ plaques; also recorded: detected compact Aβ plaques
same,staining of brain tissue sections,Aβ plaques [2],labeling of Aβ plaques
same,Kd,preformed Aβ1-42 fibrils,17 nM
CN(C)c1ncc(/C=C/c2nc3cc(OCCF)ccc3[se]2)cn1 [F-AI-187],Kd,preformed Aβ1-42 fibrils,1.58 nM
"CC(=C(C#N)C#N)c1ccc2cc(N(C)CC[18F])ccc2c1 [FDDNP, 2-(1-(6-[(2-[18F]fluoroethyl)(methyl)amino]-2-naphthyl)ethylidene)malononitrile]",affinity for BS1 and BS3 sites,BS1 and BS3 sites,low affinity
"[11CH3]Nc1ccc(/C=C/c2ccc(O)cc2)cc1 [SB-13, [^11C]4-N-methylamino-4′-hydroxystilbene]",biological half-life in serum,[3],low
"[11CH3]Nc1ccc(-c2nc3ccc(O)cc3s2)cc1 [^11C-PIB, 2-[p-(Methylamino)phenyl]-3-thia-1-aza-5-indanol]",metabolism in vivo,[4],facile metabolism
CN(C)c1ccc(/C=C/c2nc3ccc(OCC[18F])cc3s2)cn1 [^18F-AI-182],metabolism in human serum,Stability in human serum; human serum,non-metabolized
same,time until which non-metabolized in human serum,Stability in human serum; investigated highest time-point,about 30 min
same,tissue uptake at 5 min,"[5]; FVB, kidney, normal mice, 5 min, read-out: kidney uptake",6.76 ± 1.57 %ID/g
same,tissue uptake at 120 min,"[5]; FVB, kidney, normal mice, 120 min, read-out: kidney uptake",1.57 ± 0.08 %ID/g
same,tissue uptake at 5 min,"[5]; FVB, liver, normal mice, 5 min, read-out: liver uptake",16.3 ± 1.41 %ID/g
same,tissue uptake at 120 min,"[5]; FVB, liver, normal mice, 120 min, read-out: liver uptake",2.71 ± 0.21 %ID/g
same,penetration of brain / blood-brain barrier,[5]; mice,facile penetration of the blood-brain barrier (BBB)
same,tissue uptake at 5 min,"[5]; brain, normal FVB mice, 5 min post tail-vein injection, read-out: brain uptake",7.28 ± 0.46 %ID/g
same,tissue uptake at 120 min,"[5]; brain, normal FVB mice, 120 min post tail-vein injection, read-out: brain uptake",1.54 ± 0.06 %ID/g
same,5 min/120 min brain clearance ratio,[5]; normal mice,4.73
same,initial brain uptake (5 min) compared with Aβ-targeted 99mTc-Peptides,[5]; normal mice,approximately 15 fold
same,net brain uptake relative to 18F-AV-45,[5]; normal mice,1.2 fold
same,blood clearance faster than 18F-AV-45,"[5]; normal mice, 5 min to 120 min",25%
CNc1ccc(/C=C/c2ccc(OCCOCCOCC[18F])nc2)cc1 [^18F-AV-45],2 min/120 min brain clearance ratio,[6],4.07
same,biological half-life in serum,[3],low
same,kidney uptake,[7]; 2 min,14.19±2.34 % ID/g
same,kidney uptake,[7]; 120 min,2.19±0.36 % ID/g
same,liver uptake,[7]; 120 min,4.96±0.90 % ID/g
same,brain uptake,[7]; 2 min post-injection,7.33±1.54 % ID/g
same,brain uptake,[7]; 120 min post-injection,1.80±0.07 % ID/g
same,metabolism in vivo,[4],facile metabolism
